This note sets out measurements from paper PMC12816392, “Salmonella relies on siderophore exploitation at low pH” (microLife, 2026).

What is called pKd is the Kd on a negative log10 scale, so that one unit is a factor of ten.

pKd: −log10 of the molar value.

The target of the assay is FoxA (Salmonella enterica, UniProt E1W8M5). The experiment in a line: […]-DFOE radioligand binding to whole Salmonella cells expressing FoxA, at […]-4 °C with CCCP, filtration and scintillation counting; pH […] and […]. It is filed as cell-based.
Chain of FoxA (E1W8M5 31-702): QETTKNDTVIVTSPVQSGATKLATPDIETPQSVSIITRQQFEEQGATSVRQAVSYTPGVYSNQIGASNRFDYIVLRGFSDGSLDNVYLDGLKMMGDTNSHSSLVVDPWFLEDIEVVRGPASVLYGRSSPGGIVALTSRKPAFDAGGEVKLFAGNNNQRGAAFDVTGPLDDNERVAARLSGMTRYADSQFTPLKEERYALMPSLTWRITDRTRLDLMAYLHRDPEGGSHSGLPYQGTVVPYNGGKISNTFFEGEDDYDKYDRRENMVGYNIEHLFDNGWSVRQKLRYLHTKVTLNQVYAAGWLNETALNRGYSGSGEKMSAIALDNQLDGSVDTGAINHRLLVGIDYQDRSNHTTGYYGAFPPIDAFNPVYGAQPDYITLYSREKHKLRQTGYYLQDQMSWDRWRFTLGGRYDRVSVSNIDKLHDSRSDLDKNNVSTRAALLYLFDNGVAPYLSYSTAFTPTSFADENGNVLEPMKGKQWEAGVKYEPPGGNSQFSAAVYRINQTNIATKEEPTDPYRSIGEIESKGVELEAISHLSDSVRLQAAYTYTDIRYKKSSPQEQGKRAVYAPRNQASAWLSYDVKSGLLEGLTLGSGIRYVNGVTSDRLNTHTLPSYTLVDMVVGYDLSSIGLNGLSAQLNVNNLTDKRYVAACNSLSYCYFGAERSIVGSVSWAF

The compound `O=C1CCC(=O)N(O)CCCCCNC(=O)CCC(=O)N(O)CCCCCNC(=O)CCC(=O)N(O)CCCCCN1` [DFOE, ferrioxamine E] showed a negative-log Kd (pKd) of roughly 8.49.
